# Results taken from patent US5162335A, “Di- and tetrahydroisoquinoline derivatives” (Duphar International Research B.V., priority 1986, dated 1992).
# System: human cell lines: breast MCF7 and HTB26, colon WIDR and HTB38, lung HTB53, melanoma HTB66, and uterus HTB114
# Assay: Clonogenic assay with human cell lines (test 2)
# Format: cell-based
# Details: treatment approximately three times the cell cycle, more particularly the D-enantiomers, read-out: ID75 in the clonogenic assay (test 2)
# Description: 2. CLONOGENIC ASSAY WITH HUMAN CELL LINES
# The following human cell lines are used: breast MCF7 and HTB26, colon WIDR and HTB38, lung HTB53, melanoma HTB66, and uterus HTB114.
# As comparative substances are used cisplatinum, 5-fluorouracil, daunomycine, bleomycine and adriamycine.
# During providing the cells or after a pre-incubationperiod of one night, the compound to be tested is added as a solution or suspension in 0.5% CMC/saline solution in a dose range with a maximum concentration of 15 μg/ml.
# The duration of the treatment is approximately three times the cell cycle. The cells are then fixed, coloured and evaluated for the presence of the colonies. The formation of colonies is expressed in the number of colonies which is present on the treated dishes as a perecentage of the number of colonies which is present on control dishes.
row,Structure (SMILES),IC75
1,COc1cc([C@H]2N[C@@H](CO)Cc3c2ccc2ccccc32)cc(OC)c1OC (relative stereo) [Example 23],< 1 µg/mL
2,COc1cc([C@H]2c3ccc4ccccc4c3C[C@H]3COC(=O)N32)cc(OC)c1OC (relative stereo) [Example 81],< 1 µg/mL
3,COc1cc([C@H]2c3c(ccc4ccccc34)C[C@H]3COC(=O)N32)cc(OC)c1OC (relative stereo) [Example 82],< 1 µg/mL
4,COc1cc([C@H]2N[C@@H](CO)Cc3cc4c(cc32)OCCO4)cc(OC)c1OC [Example 20],< 1 µg/mL
5,COc1cc([C@@H]2c3cc4c(cc3C[C@@H]3COS(=O)N32)OCO4)cc(OC)c1OC (stereo partly drawn) [Example 55],< 1 µg/mL
6,COc1cc([C@@H]2c3cc4c(cc3C[C@@H]3CN(C)[S+]([O-])N32)OCO4)cc(OC)c1OC (stereo partly drawn) [Example 70],< 1 µg/mL
7,COc1cc([C@@H]2c3cc4c(cc3C[C@@H]3COC(=O)N32)OCCO4)cc(OC)c1OC [Example 79],< 1 µg/mL
8,COc1cc(OC)c([C@H]2c3cc4c(cc3C[C@H]3COC(=O)N32)OCCO4)cc1OC [Example 80],< 1 µg/mL
9,COc1cc([C@H]2N[C@@H](C(N)=O)Cc3cc4c(cc32)OCCO4)cc(OC)c1OC [Example 110],< 1 µg/mL
